Literature values as cited in patent US7884104B2, “Aminopiperidines as dipeptidyl peptidase-IV inhibitors for the treatment or prevention of diabetes” (Merck Sharp & Dohme Corp., priority 2004, dated 2011).
Each block holds one compound with its values, some of them ahead of it.

Columns and labels:
hematopoiesis = settings: mouse, cyclophosphamide-induced neutropenia
DPP-IV = molecular target: T1, DPP-IV (Homo sapiens, UniProt P27487)
T1 construct: GRF is rapidly degraded in plasma to GRF[344]; host or cells: plasma (endogenous enzyme activity)

cardiac allograft = settings: rats; doubled from day 7 to day 14

T1 sequence (P27487 39-766 limits assumed, species assumed): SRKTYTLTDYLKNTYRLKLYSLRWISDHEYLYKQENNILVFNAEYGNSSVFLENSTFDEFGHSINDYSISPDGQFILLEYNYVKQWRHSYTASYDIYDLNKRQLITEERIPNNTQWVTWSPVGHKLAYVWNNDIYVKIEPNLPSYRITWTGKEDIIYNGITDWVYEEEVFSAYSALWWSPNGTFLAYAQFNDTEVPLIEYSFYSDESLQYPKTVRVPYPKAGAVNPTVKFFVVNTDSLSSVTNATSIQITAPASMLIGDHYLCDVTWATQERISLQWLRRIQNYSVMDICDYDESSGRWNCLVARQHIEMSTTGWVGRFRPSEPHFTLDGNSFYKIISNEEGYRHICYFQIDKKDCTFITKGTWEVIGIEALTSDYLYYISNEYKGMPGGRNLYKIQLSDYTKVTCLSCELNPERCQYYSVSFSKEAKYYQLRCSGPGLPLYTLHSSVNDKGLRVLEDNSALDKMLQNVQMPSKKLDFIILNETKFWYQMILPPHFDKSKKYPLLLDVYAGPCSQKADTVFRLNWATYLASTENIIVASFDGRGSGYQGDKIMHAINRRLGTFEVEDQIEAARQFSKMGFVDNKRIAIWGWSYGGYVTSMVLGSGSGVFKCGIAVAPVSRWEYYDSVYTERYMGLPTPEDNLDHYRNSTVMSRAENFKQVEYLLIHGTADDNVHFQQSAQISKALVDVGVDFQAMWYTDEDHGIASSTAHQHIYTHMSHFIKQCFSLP

Compound: CC(C)[C@H](N)C(=O)N1CCC[C@H]1B(O)O [Val-Boro-Pro]
effect on hematopoiesis (hematopoiesis): stimulated hematopoiesis

effect on degradation of GRF in plasma (DPP-IV): prevented
Compound: diprotin A

Compound: CC(C)N1CCC(c2ccccc2)(c2ccccc2)CC1 [Prodipine, Pro-Pro-diphenyl-phosphonate]
cardiac allograft survival (cardiac allograft): 14 day
